Experimental findings from patent publication US12251478B2 (Arizona Board of Regents on behalf of Arizona State …, priority 2019, dated 2025) are described below.

Assay [1] has as its system acute and slow healing diabetic wounds. In words: Full-thickness punch biopsy wound model, statements covering acute and diabetic wounds together. The conditions noted are these: histamine applied topically on 5 mm full thickness wounds, covered with Tegaderm or silk dressing, 800 nm NIR laser. It is filed as in vivo, mice. An excerpt: (§1) The histamine composition was applied topically on 5-millimeter mid-dorsal full thickness wounds and covered with either Tegaderm™ (transparent film dressing) or a silk dressing and irradiated with 800 nm near infrared laser (NIR) light.
(§2) Post-wounding, the mice were recovered for 7-11 days and their healing kinetics were monitored for different treatment groups.
(§3) An example protocol is as follows. Full-thickness punch biopsy dorsal wounds were created on mice, bioactive wound dressing applied, and the wounds were splinted to prevent wound closure by contraction. Either immunomodulator molecule was delivered on the day of wounding or a later time-point to accelerate wound healing.

In another assay the test system is acute wounds. In words: Acute wound healing, full-thickness punch biopsy wound model in immunocompetent mice. The assay is classed as in vivo, BALB/c mice.
Text: as §1, §2, §3
FIG. 1 includes images of a wound closure procedure, which was performed with BALB/c mice (about 8-10 weeks old), with a wound size of about 5 mm (n=10), and with a histamine concentration of 3.4 mg/kg per mouse.
Additionally, Elastin-Like Polypeptide (ELP) was used alone as a control. We tested whether ELP in itself influenced healing efficacy. These studies were performed in BALB/c mice (acute wounds), 5 mm wounds, ELP concentration 2 μM (per wound/mouse). Histamine and GFNPs concentration were 3.4 mg/kg and 2 μM, respectively. Histamine and GFNPs concentration were same as previous reported studies. The GFNPs used in this study is SDF1-ELP.
A histamine double dosage control (e.g., two sequential dosage of histamine) was investigated. […] These studies were performed in BALB/c mice (acute wounds) and in 5 mm wounds. Histamine and GFNPs concentration were 3.4 mg/kg and 2 μM, respectively. Histamine and GFNPs concentration were same as previous reported studies. The GFNPs used in this study is SDF1-ELP. We delivered histamine in the following manner: Histamine along with silk fibroin dressing on Day 0 post wounding (like previous studies); Histamine delivered on Day 3 post wounding. Wounds were treated with PBS and silk fibroin film alone on Day 0; Histamine along with silk fibroin on Day 0 post wounding+ second dose of histamine on Day 3 post wounding delivered using subcutaneous injection; and Histamine along with silk fibroin on Day 0 post wounding+ GFNPs delivered sequentially on Day 3 post wounding.

In the case of `NCCc1c[nH]cn1` [histamine], in assay [1], the tissue biomechanical recovery entry is “improved tissue biomechanical recovery” and the wound area entry was “Significant reduction in wound area”. Further, in the assay on acute wounds (acute wound model), the contractile activity entry is “higher contractile activity”, the neovascularization result is listed as “higher neovascularization”, the re-epithelialization entry is listed as “higher re-epithelialization” and the “reduction of the dermal gap of a wound” value is “improves reduction of the dermal gap”. Besides, the resolution of inflammation entry in the assay on acute wounds (acute wound model) is recorded as “better solution of inflammation”. In addition, the “tissue strength / ultimate tensile strength (UTS) of healed skin” value with acute wounds (acute wounds, day 7, compared between dressings with histamine or saline) is reported as “higher skin strength recovery”.
